Drawing on PubChem BioAssay AID588672 (Sanford-Burnham Center for Chemical Genomics, 2011), this text covers IC50 for 30 molecules.

The experiment addresses Glucose-6-phosphate 1-dehydrogenase (Homo sapiens) (UniProt P11413). The experiment is described as follows: human G6PD enzyme inhibitors, SAR follow-up, selectivity assay for P. falciparum G6PD inhibitor project, biochemical, fluorescence, dose response, set 2 (AID 588672). Particulars: recombinant human G6PD, NADPH-diaphorase-resazurin fluorescence.

Calls of active or inactive are those of the source.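 How the source made its calls: active means IC50 at or below 20 µM; inactive means the rest.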

Sequence of Glucose-6-phosphate 1-dehydrogenase (Homo sapiens) (P11413 whole entry, looked up): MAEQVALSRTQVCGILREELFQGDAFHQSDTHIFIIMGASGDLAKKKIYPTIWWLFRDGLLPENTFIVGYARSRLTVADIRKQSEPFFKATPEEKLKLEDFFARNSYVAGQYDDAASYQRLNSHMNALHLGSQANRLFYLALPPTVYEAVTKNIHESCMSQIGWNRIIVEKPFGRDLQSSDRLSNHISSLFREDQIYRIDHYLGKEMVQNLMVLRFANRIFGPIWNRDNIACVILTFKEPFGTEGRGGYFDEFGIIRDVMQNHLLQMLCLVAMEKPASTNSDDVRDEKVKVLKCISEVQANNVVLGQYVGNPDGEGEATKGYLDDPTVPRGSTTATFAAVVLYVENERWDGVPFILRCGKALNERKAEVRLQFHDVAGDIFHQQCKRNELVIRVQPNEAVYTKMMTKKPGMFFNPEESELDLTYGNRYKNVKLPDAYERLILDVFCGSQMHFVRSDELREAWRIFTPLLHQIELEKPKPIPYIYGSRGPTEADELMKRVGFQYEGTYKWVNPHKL

Turning to `CCN1CCCC1CNC(=O)c1ccc2c(c1)NC(=O)c1ccccc1O2` (stereo not given), the IC50 was > 80 µM (inactive).

Regarding `CCN1CCCC1CNC(=O)c1ccc2c(c1)NC(=O)/C(=C/c1cccc3ccccc13)S2` (stereo not given), the IC50 was > 80 µM (inactive).

On to `CCN1CCCC1CNC(=O)c1ccc2c(c1)NC(=O)CS2` (stereo not given), for which the IC50 is > 80 µM (inactive).

Regarding `O=C(NCCN1CCCC1)c1ccc2c(c1)NC(=O)c1ccccc1S2`, the IC50 is > 80 µM (inactive).

With `CCN(CC)CCNC(=O)c1ccc2c(c1)NC(=O)c1ccccc1S2`, the IC50 was > 80 µM (inactive).

Turning to `CCN(CC)CCNC(=O)c1ccc2c(c1)NC(=O)c1ccccc1O2`, the IC50 is > 80 µM (inactive).

`CN1CCCC1CCNC(=O)c1ccc2c(c1)NC(=O)/C(=C/c1ccccc1F)S2` (stereo not given): the IC50 is > 80 µM (inactive).

`O=C1COc2ccc(C(=O)NCCN3CCOCC3)cc2N1`: the IC50 was > 80 µM (inactive).

Take `CN(C)CCNC(=O)c1ccc2c(c1)NC(=O)CO2`: the IC50 is > 80 µM (inactive).

Turning to `O=C1Nc2cc(C(=O)NCc3ccccc3)ccc2S/C1=C\c1ccccc1F`, the IC50 was > 80 µM (inactive).

In the case of `O=C(NCCN1CCCC1)c1ccc2c(c1)NC(=O)c1ccccc1O2`, the IC50 was > 80 µM (inactive).

Take `O=C1Nc2cc(C(=O)NCCN3CCOCC3)ccc2S/C1=C\c1ccccc1F`: the IC50 is > 80 µM (inactive).

On to `CN1CCN(C(=O)c2ccc3c(c2)NC(=O)/C(=C/c2ccccc2Cl)S3)CC1`, for which the IC50 was > 80 µM (inactive).

Turning to `CCN1CCCC1CNC(=O)c1ccc2c(c1)NC(=O)/C(=C/c1ccccc1F)S2` (stereo not given), the IC50 is > 80 µM (inactive).

For the molecule `CN(C)CCNC(=O)c1ccc2c(c1)NC(=O)/C(=C/c1ccccc1F)S2`, the IC50 is > 80 µM (inactive).

For the molecule `CCN1CCCC1CNC(=O)c1ccc2c(c1)NC(=O)/C(=C/c1ccccc1)S2` (stereo not given), the IC50 is > 80 µM (inactive).

For the molecule `CCN1CCCC1CNC(=O)c1ccc2c(c1)NC(=O)/C(=C/c1ccccc1OC)S2` (stereo not given), the IC50 was > 80 µM (inactive).

Regarding `O=C1COc2ccc(C(=O)NCCN3CCCCC3)cc2N1`, the IC50 was > 80 µM (inactive).

Turning to `CCN1CCC[C@H]1CNC(=O)c1ccc2c(c1)NC(=O)/C(=C/c1ccccc1F)S2`, the IC50 was > 80 µM (inactive).

In the case of `CCN1CCCC1CNC(=O)c1ccc2c(c1)NC(=O)c1ccccc1S2` (stereo not given), the IC50 is > 80 µM (inactive).

Regarding `CCN1CCC[C@@H]1CNC(=O)c1ccc2c(c1)NC(=O)/C(=C/c1ccccc1F)S2`, the IC50 is > 80 µM (inactive).

For the molecule `O=C(NCCN1CCOCC1)c1ccc2c(c1)NC(=O)c1ccccc1O2`, the IC50 was > 80 µM (inactive).

As to `O=C1Nc2cc(C(=O)NCCN3CCCCC3)ccc2S/C1=C\c1ccccc1F`, the IC50 was > 80 µM (inactive).

For `CCN1CCCC1CNC(=O)c1ccc2c(c1)NC(=O)/C(=C/c1ccccc1C)S2` (stereo not given), the IC50 was > 80 µM (inactive).

For the molecule `O=C1Nc2cc(C(=O)NCCN3CCCC3)ccc2S/C1=C\c1ccccc1F`, the IC50 was > 80 µM (inactive).

`O=C(NCCN1CCCCC1)c1ccc2c(c1)NC(=O)c1ccccc1O2`: the IC50 is > 80 µM (inactive).

Consider `CN(C)CCNC(=O)c1ccc2c(c1)NC(=O)c1ccccc1O2`, for which the IC50 is > 80 µM (inactive).

On to `CCN(CC)CCNC(=O)c1ccc2c(c1)NC(=O)CO2`, for which the IC50 was > 80 µM (inactive).

`CCN1CCCC1CNC(=O)c1ccc2c(c1)NC(=O)CO2` (stereo not given): the IC50 is > 80 µM (inactive).

For the molecule `O=C1COc2ccc(C(=O)NCCN3CCCC3)cc2N1`, the IC50 was > 80 µM (inactive).
